Results as given in patent US7034020B2, “Derivatives of butyric acid and uses thereof” (The University of Arkansas for Medical Science, priority 1999, dated 2006).

Legend:
[1] = system: lymph node CD4+ T cells; experiment: Ovalbumin-stimulated proliferation of lymph node CD4+ T cells from treated mice; type: in vivo, C57BL/10 mice; conditions: MEB 0.15 mmol ip on day 2 or day 3; cells restimulated with ovalbumin in vitro
Procedure: C57BL/10 mice are injected ip with ovalbumin/CFA on day 0, followed by a single ip injection of saline or MEB (0.15 mmol) on Days 2 or 3. The mice are reimmunized with ovalbumin sc on Day 10. Isotype-specific anti-ovalbumin antibody generated during the primary immune response (FIG. 4A), and the secondary immune response (FIG. 4B) are measured in the serum at day 10 and day 16, respectively. (FIG. 4C). […] This experiment was repeated, and the proliferation data represents the means of the two experiments.
If the butyrate derivatives suppressed antibody production to a thymus-dependent antigen by inactivating the antigen-specific CD4^+ T cells required for B cell help, then the butyrate derivatives need only be present during an early stage during which the CD4^+ T cells would otherwise be activated by antigen. […] On day 10 the mice receive 100 μg ovalbumin in conjunction with incomplete Freund's adjuvant sc at the base of the tail. After an additional 7 days, cells from the periaortic and mesenteric lymph nodes were enriched for CD4^+ T cells by negative selection (Griffin et al., 1998). […] Proliferation is measured on day 4 by assessing incorporation of [^3H]-TdR after a 12 hour pulse.

[2] = system: KLH-specific Th1 cells (clone D3); experiment: Th1 cell anergy induction in vitro (primary culture with MEB, secondary culture restimulation); type: cell-based, C57BL/10 mice; conditions: for Proliferation in antigen-stimulated secondary cultures: secondary: KLH
Procedure: KLH-specific Th1 cells (clone D3) are incubated in primary cultures with (FIG. 5A) MEB (1 mM) and/or IL-2 (10% Con A CM), or (FIG. 5B) MEB (1 mM) and/or KLH (50 μg/ml). After 2 days, the Th1 cells are isolated from the primary cultures, rested, and then re-incubated in secondary cultures stimulated with antigen (KLH, 50 μg/ml) or IL-2 (10% Con A CM).
Th1 cells are treated with MEB in the presence or absence of antigen or exogenous IL-2.
The ability of the butyrate derivative to induce Th1 cell anergy is examined using a protocol previously developed for n-butyrate-induced T cell tolerance (Gilbert and Weigle, 1993). Briefly, Th1 cells are incubated in primary cultures at 2.5×10^5 cells/ml, along with MEB (1 mM), KLH (50 μg/ml), and 5×10^6/ml irradiated syngeneic spleen cells as APC. Alternatively, the Th1 cells are incubated in primary cultures containing MEB and IL-2 (10% Con A CM). Control primary cultures receive MEB and APC, but no antigen or IL-2. After incubation for 24 h at 37° C., the cells in the primary cultures are harvested, washed free of MEB, and reincubated at 2.5×10^5 ml in secondary cultures without MEB. The Th1 cells in the secondary cultures are stimulated with 10% IL-2-cQntaining Con A CM, or with 5×10^6/ml irradiated syngeneic spleen cells as APC, and KLH. After 2 days in the secondary cultures, the Th1 cells are assessed for proliferation (pulsed with [^3H]-TdR for 12 h).

[3] = Toxicity in mice treated with MEB; type: in vivo; conditions: dose approximated 0.7 g/kg/day

CCCC(=O)OCCN1CCOCC1.Cl [MEB, 2-(4-Morpholinyl)ethyl butyrate hydrochloride]
Antigen-specific proliferation of CD4+ T cells from antigen-primed mice [1]: significant loss of antigen-specific proliferation
Proliferation in antigen-stimulated secondary cultures ([2]; primary culture: IL-2 and MEB (1 mM)): retain their ability to proliferate to antigen
Proliferation in antigen-stimulated secondary cultures ([2]; primary culture: MEB alone (1 mM)): retain their ability to proliferate in response to antigen stimulation
Proliferation in secondary cultures stimulated with exogenous IL-2 ([2]; primary culture: antigen (KLH) and MEB (1 mM), secondary: IL-2): can still proliferate
Proliferation in antigen-stimulated secondary cultures ([2]; primary culture: antigen (KLH) and MEB (1 mM)): lose their ability to proliferate
Toxicity [3]: No toxicity
